Results published in ChEMBL document CHEMBL1201862, “PubChem BioAssay data set” (2004).
One block for each compound: values may come before it. Active and inactive are the calls of the source. For most assays here, no stated cut-off is given here; in the data, actives have a measured IC50 and inactives only a lower limit.

Columns and labels:
[1] = target: T1, Tyrosine-protein phosphatase non-receptor type 7 (Homo sapiens, UniProt P35236); test: inhibition of hematopoietic tyrosine phosphatase HePTP – biochemical, set 2, SAR follow-up (AID 449736); format: functional
T1 sequence (P35236 whole entry): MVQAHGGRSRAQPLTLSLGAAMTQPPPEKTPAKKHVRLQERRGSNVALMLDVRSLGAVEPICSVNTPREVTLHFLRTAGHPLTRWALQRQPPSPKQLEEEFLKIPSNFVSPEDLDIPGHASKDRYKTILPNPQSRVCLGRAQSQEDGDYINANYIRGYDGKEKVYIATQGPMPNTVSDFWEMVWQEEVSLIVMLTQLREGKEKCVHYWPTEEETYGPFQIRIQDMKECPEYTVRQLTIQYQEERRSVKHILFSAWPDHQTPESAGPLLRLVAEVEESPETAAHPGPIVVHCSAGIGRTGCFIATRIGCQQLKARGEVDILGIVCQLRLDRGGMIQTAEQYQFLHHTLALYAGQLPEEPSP

Hexokinase HKDC1 = target: T2, Hexokinase HKDC1 (Homo sapiens, UniProt Q2TB90); test: activation of HKDC1 glucose phosphorylation – biochemical, W721R variant, dose response (AID 504730); format: functional
T2 sequence (Q2TB90 whole entry): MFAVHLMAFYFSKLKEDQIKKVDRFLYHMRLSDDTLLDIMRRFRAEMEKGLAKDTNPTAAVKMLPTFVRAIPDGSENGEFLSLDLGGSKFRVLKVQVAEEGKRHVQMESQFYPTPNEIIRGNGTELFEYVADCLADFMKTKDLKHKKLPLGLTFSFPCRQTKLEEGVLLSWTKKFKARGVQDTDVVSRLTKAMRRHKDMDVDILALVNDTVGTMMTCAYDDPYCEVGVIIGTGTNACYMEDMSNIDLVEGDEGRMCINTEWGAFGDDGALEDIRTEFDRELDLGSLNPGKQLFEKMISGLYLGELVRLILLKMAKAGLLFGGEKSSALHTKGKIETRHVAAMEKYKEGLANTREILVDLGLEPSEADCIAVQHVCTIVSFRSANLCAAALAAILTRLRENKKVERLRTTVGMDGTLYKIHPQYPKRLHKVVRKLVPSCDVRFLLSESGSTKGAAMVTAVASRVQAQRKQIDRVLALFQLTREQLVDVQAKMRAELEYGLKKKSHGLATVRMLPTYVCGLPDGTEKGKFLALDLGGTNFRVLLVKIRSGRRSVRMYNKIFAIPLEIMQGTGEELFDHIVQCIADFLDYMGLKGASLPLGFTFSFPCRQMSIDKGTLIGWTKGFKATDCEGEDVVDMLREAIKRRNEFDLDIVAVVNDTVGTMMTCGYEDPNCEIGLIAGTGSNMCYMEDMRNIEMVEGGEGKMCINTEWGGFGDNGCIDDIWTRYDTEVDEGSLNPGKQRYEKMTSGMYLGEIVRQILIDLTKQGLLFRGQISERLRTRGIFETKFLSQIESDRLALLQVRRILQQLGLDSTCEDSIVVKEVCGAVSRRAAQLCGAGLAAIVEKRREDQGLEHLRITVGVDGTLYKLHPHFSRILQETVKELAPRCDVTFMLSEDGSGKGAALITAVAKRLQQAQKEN

Hexokinase-1 = target: T3, Hexokinase-1 (Homo sapiens, UniProt P19367); test: HK1 enzyme activation by HKDC1 hits – biochemical, selectivity assay for HKDC1 activator project, dose response (AID 504762); format: functional
T3 sequence (P19367 whole entry): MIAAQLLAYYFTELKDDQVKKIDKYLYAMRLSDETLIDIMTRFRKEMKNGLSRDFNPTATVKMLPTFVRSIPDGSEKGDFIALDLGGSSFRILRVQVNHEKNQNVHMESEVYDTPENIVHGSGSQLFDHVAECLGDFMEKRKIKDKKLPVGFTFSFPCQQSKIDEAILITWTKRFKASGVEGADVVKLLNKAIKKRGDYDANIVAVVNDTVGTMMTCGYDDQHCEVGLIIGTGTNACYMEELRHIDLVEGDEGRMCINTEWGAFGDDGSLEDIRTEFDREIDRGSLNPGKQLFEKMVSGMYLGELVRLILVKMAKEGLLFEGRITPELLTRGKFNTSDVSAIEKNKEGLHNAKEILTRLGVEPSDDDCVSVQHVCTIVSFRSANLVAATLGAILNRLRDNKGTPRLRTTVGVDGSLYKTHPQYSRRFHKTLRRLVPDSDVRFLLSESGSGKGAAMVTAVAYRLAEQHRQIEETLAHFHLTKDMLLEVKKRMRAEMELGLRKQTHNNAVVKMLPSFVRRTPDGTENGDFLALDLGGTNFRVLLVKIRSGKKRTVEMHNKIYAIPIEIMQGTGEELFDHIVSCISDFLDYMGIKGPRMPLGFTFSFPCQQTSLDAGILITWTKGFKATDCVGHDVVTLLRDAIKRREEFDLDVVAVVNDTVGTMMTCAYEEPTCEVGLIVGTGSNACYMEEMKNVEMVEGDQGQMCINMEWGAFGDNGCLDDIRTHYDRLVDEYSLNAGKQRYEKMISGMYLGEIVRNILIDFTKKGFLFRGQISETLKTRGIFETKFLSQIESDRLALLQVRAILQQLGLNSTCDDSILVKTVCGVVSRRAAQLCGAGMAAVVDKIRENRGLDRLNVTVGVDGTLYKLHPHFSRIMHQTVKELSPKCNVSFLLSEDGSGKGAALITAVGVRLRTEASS

HEK293 [2] = test: NOD2 signaling inhibitors in MDP-stimulated cells, cell-based, uHTS, luminescence (AID 2001); format: functional; settings: Homo sapiens
Tumor necrosis factor [3] = target: T4, Tumor necrosis factor (Homo sapiens, UniProt P01375); test: analog potency on TNFa NF-kB signaling – cell-based, revised, SAR follow-up (AID 2337); format: functional
HEK293 [4] = test: cells; settings: Homo sapiens
[5] = target: T5, Nucleotide-binding oligomerization domain-containing protein 2 (Homo sapiens, UniProt Q9HC29); test: inhibition of NOD2 signaling – set 2, SAR follow-up (AID 2475); format: functional
[6] = target: T5, Nucleotide-binding oligomerization domain-containing protein 2; test: inhibition of MDP-driven NOD2 NF-kB reporter – cell-based, set 3, SAR follow-up (AID 2799); format: functional
[7] = target: T5, Nucleotide-binding oligomerization domain-containing protein 2; test: PubChem AID 2334; format: functional
Tumor necrosis factor [8] = target: T4, Tumor necrosis factor; test: analog potency on TNFa NF-kB signaling – cell-based, set 3, SAR follow-up (AID 2801); format: functional
HEK293 [9] = test: SAR analysis of compounds that are cytotoxic to HEK293 - Set 2. [Related pubchem assays (depositor defined):AID1575, AID1578, AID1849, AID2001, AID2333, AID2334, AID2335, AID2337, AID2800]; format: functional, cell-based; settings: Homo sapiens
HEK293 [10] = test: SAR analysis of compounds that are cytotoxic to HEK293 - Set 3. [Related pubchem assays (depositor defined):AID1575, AID1578, AID1848, AID1849, AID2001, AID2333, AID2334, AID2335, AID2337, AID2469]; format: functional, cell-based; settings: Homo sapiens
HEK293 [11] = test: cells; format: functional, cell-based; settings: Homo sapiens
HEK293 [12] = test: cells; format: functional, cell-based; settings: Homo sapiens; remark: listed apart in the source

T4 sequence (P01375 whole entry): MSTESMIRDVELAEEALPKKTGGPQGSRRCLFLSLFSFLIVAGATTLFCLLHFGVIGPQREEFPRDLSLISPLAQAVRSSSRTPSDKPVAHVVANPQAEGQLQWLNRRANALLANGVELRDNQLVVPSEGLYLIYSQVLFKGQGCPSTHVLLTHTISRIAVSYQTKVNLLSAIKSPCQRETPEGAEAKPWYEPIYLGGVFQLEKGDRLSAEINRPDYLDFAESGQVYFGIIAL
T5 sequence (Q9HC29 whole entry, the tested form may be a part): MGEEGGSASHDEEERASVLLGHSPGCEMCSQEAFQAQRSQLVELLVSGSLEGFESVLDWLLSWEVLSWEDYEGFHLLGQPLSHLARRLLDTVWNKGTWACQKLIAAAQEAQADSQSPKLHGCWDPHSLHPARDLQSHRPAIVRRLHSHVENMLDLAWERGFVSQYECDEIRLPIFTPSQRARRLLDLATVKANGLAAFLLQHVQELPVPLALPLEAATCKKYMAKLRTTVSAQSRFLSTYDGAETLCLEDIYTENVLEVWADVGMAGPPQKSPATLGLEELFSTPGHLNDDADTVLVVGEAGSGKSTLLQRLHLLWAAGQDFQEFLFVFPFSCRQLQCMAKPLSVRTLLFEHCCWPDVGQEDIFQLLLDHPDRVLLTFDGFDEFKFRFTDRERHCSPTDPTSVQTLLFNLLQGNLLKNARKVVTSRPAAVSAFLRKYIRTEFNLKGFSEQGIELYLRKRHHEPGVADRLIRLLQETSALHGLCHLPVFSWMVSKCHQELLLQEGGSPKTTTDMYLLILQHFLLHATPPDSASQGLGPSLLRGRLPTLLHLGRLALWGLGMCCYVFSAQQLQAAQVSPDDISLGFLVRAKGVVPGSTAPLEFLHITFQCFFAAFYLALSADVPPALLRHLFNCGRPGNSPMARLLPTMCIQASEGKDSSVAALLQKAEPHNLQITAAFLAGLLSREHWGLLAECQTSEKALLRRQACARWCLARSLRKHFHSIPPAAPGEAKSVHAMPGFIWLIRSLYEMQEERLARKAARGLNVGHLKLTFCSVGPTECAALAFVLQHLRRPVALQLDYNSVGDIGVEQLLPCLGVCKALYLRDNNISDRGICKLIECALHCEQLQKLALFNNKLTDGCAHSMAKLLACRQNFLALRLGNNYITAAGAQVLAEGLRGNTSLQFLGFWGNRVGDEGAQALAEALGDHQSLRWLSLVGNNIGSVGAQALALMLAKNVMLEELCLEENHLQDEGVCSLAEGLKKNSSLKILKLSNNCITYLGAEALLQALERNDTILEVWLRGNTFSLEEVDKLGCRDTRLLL

- IC50 [1]: 47.6 µM (active)
Compound: Cc1ccc(NC(=O)Nc2ccc(S(N)(=O)=O)cc2)cc1

- EC50 (Hexokinase HKDC1): 31.8 µM (inactive)
- EC50 (Hexokinase-1): 49.3 µM (inactive)
Compound: Nc1nc(-c2cccc(Br)c2)cs1

Compound: Cc1ccc(S(=O)(=O)n2c(N)nc3ccccc32)cc1
- IC50 (HEK293 [2]): > 20 µM (inactive)
- IC50 (Tumor necrosis factor [3]): > 20 µM (inactive)
- IC50 (HEK293 [4]): > 20 µM (inactive)
- IC50 [5]: > 20 µM (inactive)
- IC50 [6]: > 20 µM (inactive)
- IC50 [7]: > 20 µM (inactive)
- IC50 (Tumor necrosis factor [8]): > 20 µM (inactive)
- IC50 (HEK293 [9]): > 20 µM (inactive)
- IC50 (HEK293 [10]): > 20 µM (inactive)
- IC50 (HEK293 [11]): > 20 µM (inactive)
- IC50 (HEK293 [12]): > 20 µM (inactive)
